We go through two molecules from patent US12024502B2, “Biased adrenergic agonists” (University of South Florida, priority 2021, dated 2024).

Assay [1] concerns ERK1/2. Nature of the assay: ERK1/2 activation immunoblot in the presence of PKA inhibitor H89. It counts as cell-based, human. To be noted: β2AR transfected HEK-293 cells; PKA inhibitor H89 present; vs vehicle control.
Assay [2] relates to human airway smooth muscle (HASM) cells. Nature of the assay: Magnetic twisting cytometry (MTC) of HASM cells: relaxation and desensitization. Format: cell-based. To be noted: 1.0 mM ALB or 100 mM C1-S as printed, then 10 μM ISO. As to the method:
CHW cells were transfected to stably express the human β2AR under G418 selection and maintained in monolayers as previously described. Transient transfections of HEK-293T cells with constructs to express human β-arrestin2-myc, human β-arrestin2-GFP, human β2AR and β2AR-GFP, were performed using Lipofectamine 2000 (Invitrogen), and studied 48 hrs later. CHO cells stably expressing a modified β2AR and a modified β-arrestin2 for the ECA were purchased from DiscoverX. In some experiments, these cells were transiently transfected with 5 μg GRK2 cDNA. Primary HASM cells were derived from donor lungs obtained from the National Disease Exchange Registry and maintained as monolayers, and utilized between passages 3 and 6 for the physiological studies. […]
MTC was used to measure dynamic changes in the cytoskeletal stiffness as a surrogate for agonist-induced single-cell relaxation. […] Forced bead motions were detected optically with a spatial resolution of ˜5 nm, and their changes monitored, in real time, in response to b-agonist (HASM cell relaxation). […] The response to 10 μM isoproterenol (final concentration) added to the media was then determined every 1.3 sec. […] The greatest relaxation change from baseline observed at any point over the time course was utilized to quantify the maximal HASM response to isoproterenol.

`CC(C)(C)NCC(O)c1ccc(O)c(CO)c1` (stereo not shown) [ALB, albuterol]: the “activation of ERK1/2” value in assay [1] is on record as “activation of ERK1/2”. For the same molecule, the “desensitization of β2AR-mediated HASM cell relaxation response to ISO” value in assay [2] (30 min pretreatment) and in assay [2] (4 hour pretreatment) was “caused desensitization” each time.

Regarding `CC(C)NCC(O)c1ccc(O)c(O)c1` (stereo not shown) [ISO, isoproterenol], the “activation of ERK1/2” value in assay [1] is listed as “activation of ERK1/2”.
